Literature values as cited in patent US20090192228A1 (ACTAVIS GROUP PTC EHF, priority 2008, published 2009).

Details: compared with oxybutynin

CC(C)N(CCC(c1ccccc1)c1cc(CO)ccc1O)C(C)C (stereo not shown)
Side-effects relative to oxybutynin, particularly propensity to cause dry mouth: considerably fewer side-effects
